The results in this text go back to ChEMBL document CHEMBL1127161, “Synthesis of a peptidyl 2,2-difluoro-4-phenylbutyl ketone and its evaluation as an inhibitor of interleukin-1 converting enzyme” (Bioorg Med Chem Lett, 1993).

Each structure is given as a SMILES string. pKi: −log10 of the molar value.

The target of this experiment is T1, Caspase-1 (Homo sapiens, UniProt P29466).
T1 sequence (P29466 whole entry): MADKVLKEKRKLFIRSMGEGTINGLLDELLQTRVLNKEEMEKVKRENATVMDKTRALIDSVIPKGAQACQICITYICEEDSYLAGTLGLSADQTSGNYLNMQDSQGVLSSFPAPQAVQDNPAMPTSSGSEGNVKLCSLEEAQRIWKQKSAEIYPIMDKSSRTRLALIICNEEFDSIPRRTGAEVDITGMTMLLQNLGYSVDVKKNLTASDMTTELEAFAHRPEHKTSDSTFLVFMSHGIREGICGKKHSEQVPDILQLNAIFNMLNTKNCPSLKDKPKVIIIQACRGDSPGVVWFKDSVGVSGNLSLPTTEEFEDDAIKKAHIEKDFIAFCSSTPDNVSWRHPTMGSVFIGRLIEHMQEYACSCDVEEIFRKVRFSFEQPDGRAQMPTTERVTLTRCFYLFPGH
Description: The compound was tested for its inhibitory activity against IL-1 beta converting enzyme.

`CC(C)[C@H](NC(=O)CCCCc1ccccc1)C(=O)N[C@@H](C)C(=O)NC(CC(=O)O)C(=O)C(F)(F)CCCc1ccccc1` (some centres not stated): the pKi – broadly, −log10 of the Ki, conventionally taken in molar units – was 4.38. On to `CC(C)[C@H](NC(=O)CCc1ccccc1)C(=O)N[C@@H](C)C(=O)NC(CC(=O)O)C(=O)C(F)(F)CCCc1ccccc1` (some centres not stated), for which the pKi was 5.22.
